{
  "source": "patent US20230265167A1",
  "about": "“COMPOSITIONS HAVING NEUROREGENERATIVE APPLICATIONS” (GRIFOLS WORLDWIDE OPERATIONS LIMITED, priority 2020, published 2023)",
  "key": {"SH-SY5Y cells": {"test_system": "SH-SY5Y cells", "assay": "Neurite outgrowth (differentiation) in SH-SY5Y cells, Tubulin Tracker imaging", "format": "cell-based, human", "settings": "for neurite outgrowth or differentiation: FIG. 5", "method": "Transferrin is utilized in cell culture and in-vivo to deliver iron as a nutrient to cells. This is typically accomplished through the actions of holo-transferrin (HoloTf) binding to, and endocytosis by, its cognate receptor CD71, the transferrin receptor 1 (TfR1). Transferrin is typically believed to provide cells with iron as a means to promote and sustain metabolic activity. […] Induction of neuronal differentiation was assessed by morphological parameters of neurite formation (a key element typically used as a marker of neuronal differentiation, neuronal health, and function) according to the procedures of Agholme, 2010. J. of Alzheimer's Disease. Vol. 20:1p 069-108; and Dyberg et al., 2017. PNAS Vol 114 (32), E6603-E6612.\nUndifferentiated SH-SY5Y cells were seeded into 96 well clear bottom plates in media containing 0.1% FBS. A serum-free base media was utilized as recommended by the supplier for SH-SY5Y cells (Sigma, Cat #94030304-1VL). Twenty-four hours after seeding cells, a 3× stock solution of ApoTf, final concentrations indicated on the x-axis, in serum free base media was added to the cells. ApoTf was obtained and purified from pooled human plasma and dosed at a final concentration of 0.2 mg/mL.\nCells were allowed to differentiate for 6 days. Neurite growth was assessed by imaging and image analysis. At the time of analysis, a 10× solution of Tubulin Tracker (Molecular Probes, T34075) and Hoechst 33342 (Molecular Probes #H3570) nuclear stain was prepared.\nBriefly, Tubulin Tracker dissolved in DMSO was diluted 1:1 with Pluronic F-127 and further diluted into HBSS to generate a 10× solution. Hoechst 33342 was added to the HBSS-Tubulin Tracker solution at 10 μg/mL to generate a 10× nuclear stain. The 10× staining solution (10 μL) was added directly to treated assay wells and incubated at 37° C. for 30 minutes. Following incubation, 110 μL of 0.4% Trypan Blue was added directly to assay wells and imaged on a Molecular Devices Nano imaging instrument. Nine images/well were acquired in the blue (Nuclei) and green (Tubulin) fluorescent channels for each image.\nAfter obtaining images, the MetaExpress Neurite Outgrowth analysis module (Molecular Devices) was used to identify cells, cell bodies, and quantify neurites. The total number of neurite branches were divided by the total number of cells imaged to account for different numbers of cells in each test well. The Outgrowth Fold Change was determined by setting the untreated control cells to a value of 1 with all other treatments shown relative to untreated control.\nUndifferentiated SH-SY5Y cells were seeded and treated as described in Example 1. Neurite growth was assessed by imaging and image analysis. At the time of analysis, a 10× solution of Tubulin Tracker (Molecular Probes, T34075) and Hoechst 33342 (Molecular Probes #H3570) nuclear stain was prepared. Briefly, Tubulin Tracker dissolved in DMSO was diluted 1:1 with Pluronic F-127 and further diluted into HBSS to generate a 10× solution. Hoechst 33342 was added to the HBSS-Tubulin Tracker solution at 10 μg/mL to generate at 10× nuclear stain. The 10× staining solution (10 μL) was added directly to treated assay wells and incubated at 37° C. for 30 minutes. Following incubation, 110 μL of 0.4% Trypan Blue was added directly to assay wells and imaged on a Molecular Devices Nano imaging instrument. Nine images/well were acquired in the blue (Nuclei) and green (Tubulin) fluorescent channels for each image. After obtaining images, the MetaExpress Neurite Outgrowth analysis module (Molecular Devices) was used to identify cell bodies and quantify neurites. The total number of neurite branches were divided by the total number of cells imaged to account for different numbers of cells. The Outgrowth Fold Change was determined by setting the untreated control to a value of 1 with all other treatments shown relative to untreated control. ApoTf was obtained and purified from pooled human plasma and dosed at a final concentration of 0.2 mg/mL. […]"}, "HIF-1α": {"test_system": "HIF-1α", "settings": "cited from earlier work"}, "[1]": {"assay": "Iron saturation by ICP-AES", "format": "physicochemical", "from_the_text": "The skilled person will appreciate that transferrin iron saturation levels can be readily determined without undue burden by quantifying the total iron levels in a sample having a known transferrin concentration. The total iron levels in sample can be measured by any one of a number of methods know by those of skill in the art. Suitable examples include: • Colorimetric assays—Iron is quantitated by measuring the intensity of the violet complex formed in the reaction between ferrozine and Fe^2+ in acetate buffer at 562 nm. Thiourea or other chemicals can be added to complex contaminant metals such Cu^2+, which can also bind with ferrozine and yield falsely elevated iron values. See Ceriotti et al., Improved direct specific determination of serum iron and total iron-binding capacity Clin Chem. 1980, 26(2), 327-31, the contents of which are incorporated herein by reference. • Inductively Coupled Plasma Atomic Emission Spectroscopy (ICP-AES)—is an emission spectroscopy technique that quantifies the mass percentage of metals in a sample. ICP-AES is based on the excitation of metal atoms/ions in the sample using a plasma (an ionized gas consisting of positive ions and free electrons) and analyzing the emission wavelength of the electromagnetic radiation, which is typical of that particular metal. Even though the technique is a standard analytical technique within common general knowledge of the skilled person, further information on ICP-AES can be found in Manley et al., Simultaneous Cu-, Fe-, and Zn-specific detection of metalloproteins contained in rabbit plasma by size-exclusion chromatography-inductively coupled plasma atomic emission spectroscopy. J Biol Inorg Chem. 2009, 14, 61-74, the contents of which are incorporated herein by reference.\nThe preferred method of determining the iron content of a sample for the purposes of the therapeutic method of the present invention is ICP-AES. The iron saturation of transferrin is then calculated based on the transferrin protein concentration, total iron content of the sample, and the fact that wild type transferrin has two iron-binding sites. Wild type human transferrin (molecular weight 79,750) can bind two iron atoms such that a sample containing 1 g of transferrin would be 100% saturated by 1.4 mg of iron.\nProtein purity was determined by SDS-PAGE. Iron saturation levels were determined using ICP-AES in accordance with the procedures outlined in Manley et al., J Biol Inorg Chem (2009) 14:61-74, the contents of which are incorporated herein by reference."}},
  "note": "Entries after “also recorded” stand apart in the source; their conditions may differ. Where a name gives a salt, the structure may show the parent alone.",
  "data": [
    {"compound": "CC(=O)N(O)CCCCCNC(=O)CCC(=O)N(O)CCCCCNC(=O)CCC(=O)N(O)CCCCCN", "note": "[DFO, Deferoxamine mesylate, reference compound]", "values": [
      {"measurement": "neurite outgrowth / differentiation versus concentration", "setting": "SH-SY5Y cells; FIG. 3A, DFO versus ApoTf", "value": "little neurite formation beyond that concentration"}
    ]},
    {"compound": "O=C(O)CNC(=O)c1c(O)c2ccccc2n(Cc2ccccc2)c1=O", "note": "[IOX2, N-[[1,2-Dihydro-4-hydroxy-2-oxo-1-(phenylmethyl)-3-quinolinyl]carbonyl]glycine, reference compound]", "values": [
      {"measurement": "concentration inducing up-regulation of HIF-1α", "setting": "HIF-1α; undifferentiated SH-SY5Y", "value": 1, "unit": "µM"},
      {"measurement": "neurite outgrowth or differentiation", "setting": "SH-SY5Y cells", "value": "no neurite outgrowth or differentiation was observed"},
      {"measurement": "neurite outgrowth or differentiation", "setting": "SH-SY5Y cells; 4 μM", "value": "no effect was observable"}
    ]},
    {"compound": "C[C@@H](N)[C@H]1CC[C@H](C(=O)Nc2ccncc2)CC1.Cl.Cl", "note": "[Y-27632, trans-4-[(1R)-1-Aminoethyl]-N-4-pyridinylcyclohexanecarboxamide dihydrochloride, reference compound]", "values": [
      {"measurement": "neurogenic effect, alone", "setting": "SH-SY5Y cells; FIG. 8, 50 μM", "value": "strongly neurogenic"}
    ]},
    {"compound": "ApoTransferrin A: ApoTf preparation, Grifols - prepared in house", "values": [
      {"measurement": "Iron Saturation (%)", "setting": "[1]", "value": 0.27, "unit": "%"}
    ]},
    {"compound": "ApoTransferrin B: ApoTf preparation, Grifols - prepared in house", "values": [
      {"measurement": "Iron Saturation (%)", "setting": "[1]", "value": 0.59, "unit": "%"}
    ]},
    {"compound": "ApoTransferrin C: ApoTf preparation, Grifols - prepared in house", "values": [
      {"measurement": "Iron Saturation (%)", "setting": "[1]", "value": 0.24, "unit": "%"}
    ]},
    {"compound": "HoloTransferrin: the iron-saturated form of transferrin, purified from pooled human plasma", "values": [
      {"measurement": "Iron Saturation (%)", "setting": "[1]", "value": 100, "unit": "%"},
      {"measurement": "HIF-1α production", "setting": "HIF-1α; reported in US2016008437", "value": "can induce HIF-1α production"},
      {"measurement": "neurogenesis / differentiation of SH-SY5Y", "setting": "SH-SY5Y cells; FIG. 4, proteins at 0.2 mg/mL, listed as HoloTf", "value": "unable to induce differentiation; also recorded: lack of neurogenesis"}
    ]},
    {"compound": "recombinant ApoTf: recombinant wild-type human transferrin, SEQ ID NO: 1, expressed in 293-6E cells", "values": [
      {"measurement": "neurogenesis (neurite outgrowth) of SH-SY5Y", "setting": "SH-SY5Y cells; FIG. 3B, proteins at 0.2 mg/mL", "value": "did induce neurogenesis"}
    ]}
  ]
}
